Measurements published in ChEMBL document CHEMBL1201862, “PubChem BioAssay data set” (2004).
Calls of active or inactive are those of the source.

Tests used:
Cytochrome P450 3A4 = Cytochrome P450 3A4 (Homo sapiens, UniProt P08684);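 also: CYP3A4 tested as one member of a cytochrome P450 panel screen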
[1] = molecular target: T1, Corticotropin-releasing factor receptor 2/Corticotropin-releasing factor-binding protein (Homo sapiens, UniProt P24387+Q13324); assay: activators of CRF receptor 2 with binding protein – uHTS hits, confirmation (AID 602473); format: functional; details: read-out: EC50_Mean
T1 sequence (Q13324 whole entry): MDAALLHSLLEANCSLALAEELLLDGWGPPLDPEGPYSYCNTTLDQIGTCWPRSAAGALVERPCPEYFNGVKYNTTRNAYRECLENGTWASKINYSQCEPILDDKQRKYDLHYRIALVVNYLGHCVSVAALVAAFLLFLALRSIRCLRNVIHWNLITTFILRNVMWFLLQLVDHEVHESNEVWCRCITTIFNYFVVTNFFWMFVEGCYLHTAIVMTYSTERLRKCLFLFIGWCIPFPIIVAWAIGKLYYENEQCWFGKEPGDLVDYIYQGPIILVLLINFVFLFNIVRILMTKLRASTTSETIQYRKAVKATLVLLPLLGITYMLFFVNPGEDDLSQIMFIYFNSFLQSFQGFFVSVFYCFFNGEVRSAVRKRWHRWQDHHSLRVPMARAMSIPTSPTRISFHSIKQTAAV
T1 sequence (P24387 whole entry): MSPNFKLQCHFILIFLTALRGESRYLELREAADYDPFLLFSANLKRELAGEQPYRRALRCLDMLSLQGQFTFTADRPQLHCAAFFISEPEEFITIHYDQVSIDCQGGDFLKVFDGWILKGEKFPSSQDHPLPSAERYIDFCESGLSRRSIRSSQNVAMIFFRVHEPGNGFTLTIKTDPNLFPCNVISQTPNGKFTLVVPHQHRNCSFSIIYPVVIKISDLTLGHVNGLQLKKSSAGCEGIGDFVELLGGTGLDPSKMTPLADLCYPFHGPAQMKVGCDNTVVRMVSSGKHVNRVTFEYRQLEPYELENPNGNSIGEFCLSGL

[2] = molecular target: T1, Corticotropin-releasing factor receptor 2/Corticotropin-releasing factor-binding protein; assay: Dose Response confirmation of uHTS hits for small molecule antagonists of the CRF-binding protein and CRF-R2 receptor complex.; format: functional; details: read-out: IC50_Mean
Streptococcus = assay: GAS UMAA2166 growth inhibition – luminescence, BacTiterGlo, counter-screen for streptokinase expression inhibitor project, dose response (AID 1915); format: functional, organism-based;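 also: potency for reduction of bacterial viability or growth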
[3] = Luminescence Cell-Based Dose Response HTS to Identify Inhibitors of 5'UTR Stem-Loop Driven Prion Protein mRNA Translation in H4 Neuroglioblastoma Cells. [Related pubchem assays: 1827 (Project Summary), 1813 (Primary HTS)]; format: functional
Streptokinase A = molecular target: T2, Streptokinase A (Streptococcus pyogenes serotype M1, UniProt P10520); assay: viability-normalized secreted streptokinase activity reduction – plasminogen activation absorbance, OD405, dose response (AID 1914); format: functional, Streptococcus pyogenes M1 GAS;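 also: secreted streptokinase activity via plasminogen activation per viability signal from cell pellet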
T2 sequence (P10520 whole entry): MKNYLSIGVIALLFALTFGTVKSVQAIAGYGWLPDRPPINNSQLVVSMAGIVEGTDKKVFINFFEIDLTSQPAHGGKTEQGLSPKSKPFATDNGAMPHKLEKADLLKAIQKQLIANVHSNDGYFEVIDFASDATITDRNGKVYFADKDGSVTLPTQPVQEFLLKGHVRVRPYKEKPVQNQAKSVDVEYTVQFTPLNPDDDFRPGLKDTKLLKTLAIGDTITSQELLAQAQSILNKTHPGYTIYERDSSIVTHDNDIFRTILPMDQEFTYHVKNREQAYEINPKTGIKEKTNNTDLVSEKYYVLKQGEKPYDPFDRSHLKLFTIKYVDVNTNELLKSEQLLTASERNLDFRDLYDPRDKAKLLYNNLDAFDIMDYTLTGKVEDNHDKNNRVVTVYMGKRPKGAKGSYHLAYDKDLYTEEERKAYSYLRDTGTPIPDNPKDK

[4] = test system: Streptococcus sp. 'group A'; assay: Streptococcus pyogenes SK(-)GAS viability under kanamycin – luminescence, BacTiterGlo, confirmation, counter-screen for streptokinase expression inhibitor project, dose response (AID 1900); format: functional, organism-based
[5] = alpha-synuclein stem-loop luciferase translation blockers – H4 neuroglioma cells, luminescence, confirmation (AID 1988); format: functional, cell-based
[6] = luciferase reporter signal suppression in cells – H4 neuroglioma cells, luminescence, dose response (AID 1990); format: functional, cell-based
H4 = assay: Luminescence Cell-Based Dose Response HTS to Identify Activators of 5'UTR Stem-Loop Driven Prion Protein mRNA Translation in H4 Neuroglioblastoma Cells. [Related pubchem assays: 1829 (Project Summary), 1814 (Primary HTS)]; format: functional; details: Homo sapiens
[7] = Luminescence Cell-Based Dose Response HTS to Identify Activators of Luciferase Translation or Activity in H4 […] Cells. [Related pubchem assays: 1829 (Project Summary), 1814 (Primary HTS)]; format: functional
Cytochrome P450 1A2 = molecular target: T3, Cytochrome P450 1A2 (Homo sapiens, UniProt P05177);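 also: PubChem cytochrome P450 panel assay, CYP1A2 panel member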
T3 sequence (P05177 whole entry): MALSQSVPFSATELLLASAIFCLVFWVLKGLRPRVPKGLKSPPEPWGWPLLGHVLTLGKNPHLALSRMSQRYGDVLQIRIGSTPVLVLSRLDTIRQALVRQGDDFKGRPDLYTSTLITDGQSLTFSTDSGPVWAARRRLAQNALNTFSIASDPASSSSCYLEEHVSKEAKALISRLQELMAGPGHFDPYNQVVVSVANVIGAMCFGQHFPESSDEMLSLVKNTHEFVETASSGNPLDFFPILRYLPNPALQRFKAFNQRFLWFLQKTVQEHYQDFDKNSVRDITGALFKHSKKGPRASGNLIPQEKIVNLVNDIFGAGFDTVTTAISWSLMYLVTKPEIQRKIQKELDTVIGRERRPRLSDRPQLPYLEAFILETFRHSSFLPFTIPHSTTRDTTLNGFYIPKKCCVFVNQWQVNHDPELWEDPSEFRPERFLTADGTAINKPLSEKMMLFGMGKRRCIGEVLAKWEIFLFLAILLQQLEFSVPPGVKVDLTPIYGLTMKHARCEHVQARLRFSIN

Cytochrome P450 2C19 = Cytochrome P450 2C19 (Homo sapiens, UniProt P33261); assay: Cytochrome panel assay with activity outcomes. Panel member name: p450-cyp2c19 Compounds with AC50 equal or less than 10 uM are considered active; format: functional
Sequence of Cytochrome P450 2C19 (P33261 whole entry): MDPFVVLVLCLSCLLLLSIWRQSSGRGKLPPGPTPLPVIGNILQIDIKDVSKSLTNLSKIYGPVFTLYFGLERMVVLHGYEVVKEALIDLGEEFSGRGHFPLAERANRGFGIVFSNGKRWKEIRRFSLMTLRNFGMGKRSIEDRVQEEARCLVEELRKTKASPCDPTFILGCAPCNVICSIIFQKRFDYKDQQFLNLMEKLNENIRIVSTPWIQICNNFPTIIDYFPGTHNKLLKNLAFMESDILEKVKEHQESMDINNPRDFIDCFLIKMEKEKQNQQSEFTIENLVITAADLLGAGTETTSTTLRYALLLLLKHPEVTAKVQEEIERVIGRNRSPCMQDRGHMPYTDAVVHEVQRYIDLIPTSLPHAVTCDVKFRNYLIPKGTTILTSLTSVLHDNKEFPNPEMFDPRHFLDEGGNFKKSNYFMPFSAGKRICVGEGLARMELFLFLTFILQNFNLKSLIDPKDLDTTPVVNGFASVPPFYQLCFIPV

Cytochrome P450 2C9 = Cytochrome P450 2C9 (Homo sapiens, UniProt P11712)
Sequence of Cytochrome P450 2C9 (P11712 whole entry): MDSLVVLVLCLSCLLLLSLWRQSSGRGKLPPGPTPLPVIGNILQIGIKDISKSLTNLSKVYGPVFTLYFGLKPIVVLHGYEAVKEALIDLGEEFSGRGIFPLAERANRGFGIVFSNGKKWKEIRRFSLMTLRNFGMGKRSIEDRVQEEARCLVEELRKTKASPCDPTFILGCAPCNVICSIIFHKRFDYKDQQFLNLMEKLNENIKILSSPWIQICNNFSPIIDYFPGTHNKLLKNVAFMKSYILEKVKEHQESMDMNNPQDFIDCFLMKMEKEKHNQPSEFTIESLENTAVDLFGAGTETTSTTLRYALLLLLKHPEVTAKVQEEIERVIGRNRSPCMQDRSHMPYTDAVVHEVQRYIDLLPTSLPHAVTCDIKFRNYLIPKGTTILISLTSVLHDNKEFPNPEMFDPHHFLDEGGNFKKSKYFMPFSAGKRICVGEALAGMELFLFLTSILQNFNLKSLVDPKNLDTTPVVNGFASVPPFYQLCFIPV

Sequence of Cytochrome P450 3A4 (P08684 whole entry): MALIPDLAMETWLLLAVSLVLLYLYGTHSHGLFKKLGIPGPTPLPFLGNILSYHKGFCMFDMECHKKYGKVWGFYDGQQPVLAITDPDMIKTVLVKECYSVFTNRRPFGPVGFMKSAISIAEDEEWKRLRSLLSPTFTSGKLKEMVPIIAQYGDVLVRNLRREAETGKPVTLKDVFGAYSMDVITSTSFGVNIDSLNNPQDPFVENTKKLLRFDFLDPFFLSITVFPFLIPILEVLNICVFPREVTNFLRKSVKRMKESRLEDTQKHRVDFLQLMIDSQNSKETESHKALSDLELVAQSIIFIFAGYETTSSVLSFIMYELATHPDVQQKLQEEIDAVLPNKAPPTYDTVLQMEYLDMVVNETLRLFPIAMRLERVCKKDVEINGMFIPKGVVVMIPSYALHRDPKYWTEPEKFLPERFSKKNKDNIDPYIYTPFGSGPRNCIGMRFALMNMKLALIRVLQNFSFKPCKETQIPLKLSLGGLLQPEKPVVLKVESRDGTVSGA

CCN(CC)CCCCCCCCOC(=O)c1cc(OC)c(OC)c(OC)c1
AC50 (Cytochrome P450 3A4): 10 µM (inconclusive)

O=C(Oc1ccccc1)N1CCC2(CCCN(c3cccc(-c4ccccc4)c3)C2)CC1
AC50 (Cytochrome P450 3A4): 15.8 µM (inconclusive)

COc1cc(NC(=S)NCCC(c2ccccc2)c2ccccc2)c(OC)cc1Cl
EC50 [1]: > 53 µM (inactive) | IC50 [2]: 4.69 µM (active)

O=[N+]([O-])c1ccc(Cl)cc1Sc1nc2ccccc2o1
EC50 (Streptococcus): 7.26 µM (active) | EC50 [3]: > 120 µM (not active) | EC50 (Streptokinase A): 6.18 µM (active) | EC50 [4]: 2.25 µM (active) | EC50 [5]: > 120 µM (not active) | EC50 [6]: > 120 µM (not active)

CCOc1ccc2c(c1)s/c(=N/C(=O)C1CC1)n2C
EC50 (H4): 63.4 µM (active) | EC50 [7]: 0.508 µM (active)

CCCCCC(=O)Nc1ccccc1N1CCOCC1
EC50 [3]: > 120 µM (not active) | EC50 [5]: > 120 µM (not active) | EC50 [6]: > 120 µM (not active)

CNC(=O)CN(C1CCCCC1)S(=O)(=O)c1ccc(F)cc1
EC50 [1]: > 53 µM (inactive) | IC50 [2]: > 47.1 µM (inactive)

O=C(O)[C@H]1[C@H]2CN[C@H](C(=O)O)[C@H]21
AC50 (Cytochrome P450 1A2): 31.6 µM (inconclusive) | AC50 (Cytochrome P450 2C19; read-out: AC50): 31.6 µM (inconclusive)

CCNc1nnc(-c2ccncc2)s1
AC50 (Cytochrome P450 1A2): 15.8 µM (inconclusive) | AC50 (Cytochrome P450 2C9): 17.8 µM (inconclusive)

Cc1cccc(C(=O)N2CCN(c3ccc([N+](=O)[O-])c(NCc4ccco4)c3)CC2)c1
AC50 (Cytochrome P450 3A4): 28.2 µM (inconclusive)

O=C(/C=C\Nc1ccc(S(=O)(=O)Nc2ncccn2)cc1)c1cccc2ccccc12
EC50 [3]: > 120 µM (not active) | EC50 [5]: > 120 µM (not active) | EC50 [6]: 18.3 µM (active)

Cc1ccc(/N=C/c2nc(/C=C/c3cccc([N+](=O)[O-])c3)oc2O)cc1
AC50 (Cytochrome P450 3A4): 3.16 µM (inconclusive) | AC50 (Cytochrome P450 1A2): 2 µM (inconclusive) | AC50 (Cytochrome P450 2C19; read-out: AC50): 7.94 µM (inconclusive) | AC50 (Cytochrome P450 2C9): 17.8 µM (inconclusive)

CCOC(=O)c1ccccc1NC1c2ccccc2C(=O)N1c1ccc(C)cn1 (stereo not drawn)
EC50 (H4): 18.5 µM (active) | EC50 [7]: 9.17 µM (active)

CCNc1ncc2nc(-c3ccc(OC)cc3)c(=O)n(Cc3cccs3)c2n1
AC50 (Cytochrome P450 3A4): 7.94 µM (inconclusive) | AC50 (Cytochrome P450 1A2): 0.631 µM (inconclusive)

CCNc1ncc2nc(-c3ccc(F)cc3)c(=O)n(-c3ccccc3)c2n1
AC50 (Cytochrome P450 1A2): 0.398 µM (inconclusive)

Cc1[nH]c2ccccc2c1SCCNC(=O)c1ccc(S(=O)(=O)N2CCCC2)cc1
EC50 [1]: > 53 µM (inactive) | IC50 [2]: > 47.1 µM (inactive)

COc1ccc(-n2cnc3sc(-c4ccccc4)cc3c2=O)cc1
AC50 (Cytochrome P450 1A2): 3.55 µM (inconclusive)

COCCn1c(=O)c(C)nc2cncnc21
AC50 (Cytochrome P450 1A2): 15.8 µM (inconclusive) | AC50 (Cytochrome P450 2C19; read-out: AC50): 39.8 µM (inconclusive) | AC50 (Cytochrome P450 2C9): 31.6 µM (inconclusive)

CCS(=O)(=O)NCCc1cc2ccc(C)cc2nc1O
AC50 (Cytochrome P450 3A4): 39.8 µM (inconclusive) | AC50 (Cytochrome P450 2C19; read-out: AC50): 10 µM (inconclusive)

CCOCCCN(CC(=O)NC1CCCC1)C(=O)C(=O)Nc1ccc2c(c1)OCCO2
EC50 [1]: > 53 µM (inactive) | IC50 [2]: > 47.1 µM (inactive)

CCc1nc(N2CCC3(CC2)OCCO3)c2nnn(Cc3ccccc3Cl)c2n1
AC50 (Cytochrome P450 3A4): 15.8 µM (inconclusive)

COC(=O)c1cc(Br)c(=O)n(CCc2ccc(O)cc2)c1
AC50 (Cytochrome P450 1A2): 10 µM (inconclusive)

Nc1cc(O)nc(SCCSc2ccccc2F)n1
EC50 [3]: 22.3 µM (active) | EC50 [5]: 1.29 µM (active) | EC50 [6]: < 0.1 µM (active)

CCN1CCCC1CNC(=O)CSCc1nc(-c2ccccc2C)oc1C (stereo not drawn)
AC50 (Cytochrome P450 1A2): 39.8 µM (inconclusive) | AC50 (Cytochrome P450 2C19; read-out: AC50): 28.2 µM (inconclusive)

CS(=O)(=O)N1CCC[C@@]2(CCN(c3ccccn3)C2)C1
AC50 (Cytochrome P450 3A4): 20 µM (inconclusive)

O=c1oc2c(Cl)cc(Cl)cc2cc1-c1nnc(Nc2ccccc2F)s1
AC50 (Cytochrome P450 1A2): 15.8 µM (inconclusive)

O=C(Nc1nnc(C2CC2)s1)C1Cc2ccccc2CN1S(=O)(=O)c1ccccc1F (stereo not drawn)
EC50 (H4): > 120 µM (not active) | EC50 [7]: 0.123 µM (active)

COCCCNc1nc(N)c([N+](=O)[O-])c(Nc2cc(OC)ccc2OC)n1
EC50 [3]: 13.5 µM (active) | EC50 [5]: 17.8 µM (active) | EC50 [6]: 17.4 µM (active)

c1ccc(CSc2nnc3c4ccccc4c4ccccc4c3n2)cc1
AC50 (Cytochrome P450 3A4): 3.98 µM (inconclusive)

CCN(c1ccccc1)S(=O)(=O)c1ccc(NC(=S)NC(=O)c2cccs2)cc1
AC50 (Cytochrome P450 3A4): 2.24 µM (inconclusive)

Cc1ccc(C(=O)N2C(=O)C(c3ccccc3)Oc3ccccc32)cc1 (stereo not drawn)
EC50 [3]: > 120 µM (not active) | EC50 [5]: > 120 µM (not active) | EC50 [6]: > 120 µM (not active)

Cc1ccc2c(CC(=O)NCC(=O)Nc3c(C)cccc3C)coc2c1
EC50 [1]: > 53 µM (inactive) | IC50 [2]: > 47.1 µM (inactive)

Cc1ccccc1CN(C)C(=O)COC(=O)c1ccc2[nH]c(C)c(C)c2c1
EC50 [1]: > 53 µM (inactive) | IC50 [2]: > 47.1 µM (inactive)

CCOC(=O)C1CCCN(S(=O)(=O)c2ccccc2)C1 (stereo not drawn)
EC50 [1]: > 53 µM (inactive) | IC50 [2]: > 47.1 µM (inactive)

N#CNC(=Nc1cccc(F)c1)SCc1ccccc1
EC50 [1]: > 53 µM (inactive) | IC50 [2]: 14 µM (active)

COc1ccccc1C(c1nnnn1C(C)(C)C)N1CCN(Cc2ccncc2)CC1 (stereo not drawn)
AC50 (Cytochrome P450 1A2): 25.1 µM (inconclusive)

COc1ccccc1-n1c(=S)sc2c(=O)n(Cc3ccco3)c(SC)nc21
EC50 [1]: > 53 µM (inactive) | IC50 [2]: > 47.1 µM (inactive)

O=C1[C@@H]2[C@H]3[C@H](O)[C@H](O)C/C(=N/OC[C@@H](O)COCc4ccco4)[C@@H]3CC[C@H]2C(=O)N1c1ccc(F)cc1F
AC50 (Cytochrome P450 3A4): 3.16 µM (inconclusive) | AC50 (Cytochrome P450 2C19): inconclusive

S=C(Nc1ccccc1)N1CCCCC1
AC50 (Cytochrome P450 1A2): 22.4 µM (inconclusive) | AC50 (Cytochrome P450 2C19; read-out: AC50): 17.8 µM (inconclusive)
